Measurements taken from patent publication US20180353445A1, “METHODS AND COMPOSITIONS RELATING TO PROTEASOME INHIBITOR RESISTANCE” (Whitehead Institute for Biomedical Research, priority 2017, published 2018).

Key:
Assay type in all cases: cell-based, human
[1] = test system: IMR32 (reduced PSMD5) and Kelly neuroblastoma cells; experiment: Viability of IMR32 versus Kelly neuroblastoma cells (CellTiter-Glo); conditions: ABT-263 versus more specific BCL2, BCL-XL and MCL-1 inhibitors
Experimental: To determine whether these compounds also differentially affect cells with reduced expression of PSDMS, IMR32 and Kelly cells were each cultured in the presence of ABT-263, disulfiram, or elesclomol across a range of concentrations. Cell viability was measured by CellTiter-Glo® Luminescent Cell Viability Assay 72 hours after addition of the compound to cells. The fold viability relative to culture in the absence of the compound was determined for each cell line. […] In the experiment shown in FIG. 24, the lowest lower concentration of ABT-263 and disulfiram tested was 1 uM.
ABT-263 targets several members of the BCL2 family, including BCL2 and BCL-XL.

T47D cells [2] = experiment: The glucose/galactose drug screen; conditions: 10 mM Glucose or Galactose, Selleck anti cancer and natural product libraries
Experimental: We conducted a second set of drug screens to identify unique sensitivities conferred by the Hi-OXPHOS state using parental T47D breast cancer cells (without 19S subunit suppression). For this screen, we used the NPC and CDL libraries as they contained the greatest number of hits in the Lo19S screen. We tested over 800 compounds at multiple concentrations and measured their effects on relative cell growth/viability when cells were grown under aerobic glycolysis conditions (glucose-supplemented medium) or forced mitochondrial respiration conditions (galactose-supplemented medium).
The glucose/galactose drug screen—T47D cells growing in regular media were collected counted and after centrifugation cells were re-suspended in RPM1 media without glucose containing 10% dialyzed serum with the addition of either 10 mM glucose or 10 mM galactose, Cells were then plated at 1000 cells/well in 384-well opaque, white assay plates (Coming, N.Y.), 50 uL per well, and incubated overnight at 37°C./5% CO2. Application of the drug libraries and cell viability was executed as described above for the Lo19S drug screen.

[3] = test system: T47D cells with doxycycline inducible PSMD2 KD (Lo19S) versus control cells; experiment: Lo19S T47D drug screen (PSMD2 KD versus control cells, CellTiter-Glo); conditions: for viability of PSMD2 KD versus control cells: Selleck natural product library (NPC) and NIH bioactive compound library, selectivity less than for the anti-cancer library hits; for viability of PSMD2 KD versus control cells (log2 (shPSMD2/Control)): T47D, Lo19S state by dox-inducible PSMD2 shRNA, compound library screen, 72 h, CellTiter-Glo
Experimental: The effect of each drug on viability of cells was calculated by averaging the duplicate experiments. The data is plotted in FIG. 16 as the log2 of the ratio of viability of PSMD2 KD versus control cells (log2 (shPSMD2/Control)). […] The Selleck natural product library (NPC) comprising 502 compounds in 5 doses and the. NIH bioactive compound library that includes 731 compounds in 4 doses were also screened using the same system.
A deeper understanding of the proteasome inhibitor resistant state could yield insights into the molecular mechanisms activated by cells to cope with proteotoxic stress and elucidate new therapeutic strategies for cancer. With these goals in mind, we screened mechanistically diverse small molecule libraries to identify compound sensitivities altered by the Lo19S and Hi-OXPHOS states. An initial screen was conducted in the isogenic T47D model with transient induction of the Lo19S state as described above, We evaluated >4300 mechanistically well-defined compounds within 4 libraries. The compounds included approved cancer drugs (Selleck anti-cancer library: CDL), common natural products (Natural product library: NPC) and an ^-NIH bioactives library (NIH). Each of these compounds was tested at ≥4 concentrations. (Table S5, data not shown), An additional 2866 compounds from the Boston University's Chemical Methodology and Library Development (CMLD-BU) small molecule collection was screened at a single dose (BULL, see Table S5).
(§1) Generation of the Lo19S T47D cell line—For the generation of the T47D Tet-inducible PSMD2 knockdown cell line—the TRIPZ vector with an inducible shRNA targeting PSMD2 was purchased from Dharmacon (clone V3THS_403760). It was introduced to the T47D cells according to manufactures protocol and cells were selected with puromycin 1 g/ml for one week. The cells were exposed to doxycycline for 24 hours and cells were FACS sorted for the top 10% of most RFP expressing cells (highest expression of shRNA). The cells were further cultured in the absence of doxycycline and PSMD2 knockdown was induced as specified in the text.
After 48 hours the cells were collected counted and plated (in the absence of dox) at 1000 cells/well in 384-well opaque, white assay plates (Coming, NY), 50 uL per well, and incubated overnight at 37° C./5% CO2. Compound stocks from the Cancer drug library containing 349 bioactive compounds that were arrayed in dose 10 nM, 100 nM, 1 uM, 10 uM (Selleck anti-cancer compound library L3000), the natural products library containing 502 compounds that were utilized in 5 doses (dilution of 1:1000 of 2ug/ml, 0.2 ug/ml, 0.002/ug/ml, 0.0002 ug/ml), the NIH bioactive library including 731 drugs in dose of 10 nM, 100 nM, 1 uM, 10 uM and the Boston University's CMLD (Chemical Methodology and Library Development) compound deck containing 2866 compounds in one dose (10 uM), including novel chemotypes that uniquely probe three-dimensional space by employing stereochemical and positional variation within the molecular framework as diversity elements in library design. 50 nl of compounds were pin-transferred (V&P Scientific, CA, pin tool mounted onto Tecan Freedom Evo 150 MCA96 head, Tecan, Calif.) into duplicate assay plates and incubated for 72 h. The DMSO content was 0.1% within each well, Per plate, there are 32 wells of DMSO vehicle control and 32 wells of positive control compounds. After three days of incubation, 10 uL of CellTiter-Glo (Promega, Wis.) was added to each well, incubated for 10 minutes and the luminescence output was read on the M1000 Infinite Pro plate reader (Tecan, Calif.).

T47D cells [4] = experiment: Drug library screen (Selleck anti-cancer, NPC, NIH bioactive), PSMD2 KD vs control T47D cells; conditions: Selleck anti-cancer compound library screen
Experimental: Schematic representation of the drug screen setup. (FIG. 37A) 147D cells harboring a doxycycline-inducible PSMD2 shRNA were grown in the presence or absence of doxycycline for 48 hr. Cells were then collected, washed, and plated in the absence of doxycycline for 24 hr prior to exposure different compounds. Relative cell numbers were measured 3 days later.
The relative viability of the Lo19S versus control cells was calculated for replica experiments and the log2 of the ratio is plotted. […] The relative viability of the respiring cells (Hi-OXPHOS) (gal) versus the control cells (glu) was calculated for replica experiments and the log2 of the ratio is plotted.
After 48 hours the cells were collected, counted, and plated at 1000 cells/well in 384 well plates in duplicates for each cell line. Compounds from the Selleck Chemicals anti-cancer compound library (349 drugs in 4 concentrations; […]) were pinned the next day and viability was measured after 72 hours by the reduction of Resazurin (Ex=530 run, Em=590nin). (See FIG. 37A for schematic of screen.)

T47D cells [5] = experiment: Cell viability, T47D cells with doxycycline-inducible PSMD2 shRNA (KD) vs control
Experimental: FIGS. 37A-37E: Subunit suppression results in highly specific drug sensitivity alteration. Schematic representation of the drug screen setup. (FIG. 37A) 147D cells harboring a doxycycline-inducible PSMD2 shRNA were grown in the presence or absence of doxycycline for 48 hr. Cells were then collected, washed, and plated in the absence of doxycycline for 24 hr prior to exposure different compounds. Relative cell numbers were measured 3 days later. […] (FIGS. 37C-37E) The relative viability of the PSMD2 knockdown (KD) versus the control was calculated for replica experiments and the log2 of the ratio is plotted for 349 compounds from the Selleck anti-cancer L3000 drug library that were tested in 4 concentrations (FIG. 37C), the Selleck natural product library (NPC) comprising 502 compounds in 5 doses (FIG. 37D), and the NIH bioactive compound library that includes 731 compounds in 4 doses (FIG. 37E). Specific compounds are annotated.
The effect of transient PSMD2 reduction on growth of T47D cells in the presence of different proteasome inhibitors (bortezomib, MLN9708, carfilzomib, oprozornib) was tested. T47D cells harboring a doxycycline inducible control shRNA (GFP) or a doxycycline-inducible PSMD2 shRNA (TurhoRFP) were incubated with doxycycline for 3 days. Cells were then split and grown in the absence of Dox and proteasome inhibitors were then added at various concentrations. Cells were maintained in culture and then counted.
as §1, with “For” for “Generation of the Lo19S T47D cell line—For”, “line- the” for “line—the”, “Dhannacon” for “Dharmacon”, “μg/ml” for “g/ml”, “relevant Examples. The TRIPZ control GFP vector was created by removing the turboRFP from the TRIPZ control vector by digestion with Agel and ClaI and replacing it with GFP amplified with primers flanking with Agel and Clal restriction sites.” for “text.”
Cell Viability Assay—Relative cell growth and survival were measured in 96-well microplate format in the shRNA experiments and in 384 well format in the drug toxicity assays, by using the fluorescent detection of resazurin dye reduction as an endpoint (544 nm excitation and 590 run emission). 2,500 cells in 96 wells format or 1,000 cells in 384 well format were plated 24 hours before compound exposure (for 72 hours or indicated time). Each analysis was performed at least with three replicas.

[6] = test system: T47D cells harboring a doxycycline inducible PSMD2 KD shRNA construct; experiment: Viability of PSMD2 knockdown versus control T47D cells, dose response and combinations (CellTiter-Glo); conditions: T47D, transient PSMD2 suppression versus control
Experimental: Cell viability was measured by CellTiter-Glot Luminescent Cell Viability Assay 72 hours after addition of the compounds to cells.
Cell viability was measured by CellTiter-Glo® Luminescent Cell Viability Assay 72 hours after addition of the compounds were added to cells.
Cell viability was measured by CellTiter-Glolk Luminescent Cell Viability Assay 72 hours after addition of the compounds to cells.
To directly test whether altered cellular metabolism can modulate the sensitivity of cancer cells to proteasome inhibitors, we engineered the breast cancer cell line T47D into Lo19S and increased OXPHOS states. Initially, we reconstituted the Lo19S state by transient suppression of the PSMD2 subunit of the 19S complex using an inducible shRNA.
To induce a high OXPHOS (Hi-OXPHOS) state, we changed the carbon source in the cell culture media from glucose to galactose, which is poorly fermentable. This method has been previously shown to drive glutamine utilization by mitochondria and to thus increase mitochondrial respiration (Gohil et al., 2010). […] We reasoned that the Hi-OXPHOS signature we identified in Lo19S patient tumors may cooperate with the Lo19S state to further promote the ability of the cells to withstand proteotoxic stress.
Cell viability—where indicated relative cell number following different drug treatment was conducted by plating cells at 1000 cells/well in 384 well plates. Indicated concentrations of compounds were added 24 hour after plating at least in triplicate for each condition. Viability was measured 72 hours after drug addition using cell titer-glo (Promega) according to manufactures protocol. Same protocol was applied for the experiments conducted for the Lo19S T47D, MCF7 and T47D in the context of altered carbon source only the cells were plated at 1000 cells/well in RPMI media (without glucose and with dialyzed serum) containing either 10 mM Glucose or lOmM galactose.

Cc1nn(C)c(COc2ccc(N3CCN(S(=O)(=O)N(C)C)CC3)cc2)c1-c1cccc2c(CCCOc3cccc4ccccc34)c(C(=O)O)n(CCN3CCOCC3)c12 [A-1210477]
preferential sensitivity of IMR32 versus Kelly cells, compared among BCL2 family inhibitors [1]: much greater for ABT-263

COc1cc2c(cc1OC)[C@@H]1C(=O)c3ccc4c(c3O[C@@H]1CO2)C=CC(C)(C)O4 [Degeulin]
relative viability change of cells grown in glucose versus galactose (T47D cells [2]): increased sensitivity

CN1C(=O)[C@]23CC4=CC=C[C@H](O)[C@H]4N2C(=O)[C@@]1(CO)SS3 [Gliotoxin]
viability of PSMD2 KD versus control cells [3]: selectively toxic to cells with PSMD2 knockdown

COc1ccc(-c2ccc3c(N4CCOCC4)nc(N4C[C@@H](C)O[C@@H](C)C4)nc3n2)cc1CO [Ku-0063794]
growth inhibition of T47D cells with reduced level of PSMD2 vs control T47D cells (T47D cells [4]): selectively inhibit growth
viability of PSMD2 KD versus control cells (log2 (shPSMD2/Control)) [3]: selectively reduce the viability of PSMD2 KD cells versus control cells

CC[C@@H]1/C=C/C=C/C[C@H](C)[C@H](O)[C@](C)(O)C(=O)[C@H](C)[C@@H](O)[C@H](C)C(=O)[C@H](C)[C@@H](O)[C@H](C)/C=C/C(=O)O[C@H]2[C@@H](C)[C@@H](CC1)O[C@@]1(CC[C@@H](C)[C@@H](C[C@H](C)O)O1)[C@@H]2C [Oligomycin A]
relative viability change of cells grown in glucose versus galactose (T47D cells [2]): increased sensitivity

Nc1ccc2ncnc(NCCc3ccc(Oc4ccccc4)cc3)c2c1 [QNZ]
relative viability change of cells grown in glucose versus galactose (T47D cells [2]): increased sensitivity

C=C(C)[C@H]1Cc2c(ccc3c2O[C@@H]2COc4cc(OC)c(OC)cc4[C@@H]2C3=O)O1 [Rotenone]
relative viability change of cells grown in glucose versus galactose (T47D cells [2]): increased sensitivity

CC(C)C[C@H](NC(=O)[C@H](CCc1ccccc1)NC(=O)CN1CCOCC1)C(=O)N[C@@H](Cc1ccccc1)C(=O)N[C@@H](CC(C)C)C(=O)[C@@]1(C)CO1 [carfilzomib]
resistance of cells harboring PSMD2 shRNA vs parental line (EC50) (T47D cells [5]; T47D, transient PSMD2 reduction): EC50 values increased considerably

Nc1nc(Cl)nc2c1ncn2[C@H]1C[C@H](O)[C@@H](CO)O1 [cladribine, 2-chlorodeoxyadenosine]
growth inhibition of T47D cells with reduced level of PSMD2 vs control T47D cells (T47D cells [4]): selectively inhibit growth
viability of PSMD2 KD versus control cells (log2 (shPSMD2/Control)) [3]: selectively reduce the viability of PSMD2 KD cells versus control cells

CCCCc1oc2ccccc2c1C(=O)c1cc(I)c(OCCN(CC)CC)c(I)c1 [cordarone]
viability of PSMD2 KD versus control cells [3]: selectively toxic to cells with PSMD2 knockdown

CC(C)C[C@H](NC(=O)CNC(=O)c1cc(Cl)ccc1Cl)B(O)O [ixazomib]
increase of proliferation inhibition EC50 on inducing the Lo19S state [6]: ~4 fold
fold increase in EC50 induced by transient PSMD2 knockdown (KD) (T47D cells [5]; T47D cells, PSMD2 KD vs control): 50-100 fold
